# According to patent US20150094220A1, “METHOD TO PREDICT THE SAFETY OF THE TREATMENT WITH A NICOTINIC CHOLINERGIC RECEPTOR AGONIST” (GENETRACER BIOTECH S.L, priority 2012, published 2015):
# Assays:
# [1] = Observational pharmacogenetic study: treatment suspension due to adverse effects in smokers treated with varenicline; assay type: in vivo, human
# Procedure: (§1) In a study conducted on 807 patients from the Tobacco Addiction Units of 22 hospitals and health centers in Spain and Portugal, more than 300 SNPs relating to the relevant pathways with respect to the efficacy of the 3 first-line pharmacological tobacco cessation treatments were assessed: nicotine replacement therapy (NRT), bupropion and varenicline. The safety was assessed after three months of abstinence from tobacco consumption in relation to the presence of adverse effects which determined the reduction or withdrawal of the initially applied treatment.
# (§2) The analysis process was carried out after applying the usual checks for correcting data entry errors. The status of the subjects was first characterized either as “cases” or as “controls”, depending on the safety results obtained after 3 months of follow-up after the establishment of the chosen tobacco cessation treatment. Those individuals in whom (a) it was necessary to reduce the dose of the chosen treatment due to the presence of treatment-related adverse effects, or (b) it was necessary to suspend or change the treatment due to intolerance to same according to the assessment of his/her doctor, were considered as “cases”. The different statistical analysis models thus provided information about the safety associated with the presence of a certain genetic pattern.
# (§3) To assess the possibility of confounding biases as a result of the mixed population analysis, and also as a control for genotyping errors, the Hardy-Weinberg disequilibrium test was performed both in the “cases” and in the corresponding “controls”. The result of this test was assessed before analyzing the results obtained in the various logistic regression models which were used to assess the association between the specific SNPs and the safety results of the prescribed treatments. The following penetrance models were used in the logistic regression models: dominant, recessive, additive, over-dominant and log-additive. The statistical analyses were performed both with the allelic frequency and with the genotypic frequency, the latter being those which provide the most information about the associations to be replicated. All the results were presented as odds-ratios (OR) with the corresponding 95% confidence intervals and statistical significance value thereof.
# (§4) Finally, the discriminating power of the different genetic indicators (SNPs) analyzed with respect to the safety results was assessed by means of […] and area under the curve analysis. The final purpose of this analysis strategy was to enable estimating the probability of adverse effects that a subject with a certain genotypic profile who starts a tobacco cessation treatment (particularly with varenicline) may have and adjusting and monitoring his/her treatment based on this information.
# (§5) For the purpose of determining the pharmacogenetic profile associated with the safety of a pharmacological smoking cessation treatment, the results obtained in terms of abstinence from tobacco consumption after 3 months were evaluated in relation to the presence of adverse effects which determined the reduction or withdrawal of the initially applied treatment. The subjects were divided into three groups which were treated with NRT, bupropion or varenicline.
# (§6) It is an observational study with the intervention of 21 Tobacco Addiction Units from the public health services in Spain and Portugal. A total of 807 subjects were invited to participate in the study, 798 of whom provided their sociodemographic and clinical data taking a test with 144 items. They also provided a biological sample for subsequent genotyping. 483 individuals were treated with varenicline. The information of both the phenotypic and genotypic variables was collected for 479 patients treated with varenicline before establishing the pharmacological treatment.
# (§7) The clinical results were linked to the safety of the pharmacological treatments. […]
# [2] = 1 mg twice a day, 3-month treatment studies; cited from earlier work
# [3] = target: α4β2 neuronal nicotinic acetylcholine receptor subtype (Homo sapiens, UniProt P17787+P43681); conditions: selective partial agonist; cited from earlier work
# α4β2 neuronal nicotinic acetylcholine receptor subtype, sequence (P43681 29-627 limits assumed): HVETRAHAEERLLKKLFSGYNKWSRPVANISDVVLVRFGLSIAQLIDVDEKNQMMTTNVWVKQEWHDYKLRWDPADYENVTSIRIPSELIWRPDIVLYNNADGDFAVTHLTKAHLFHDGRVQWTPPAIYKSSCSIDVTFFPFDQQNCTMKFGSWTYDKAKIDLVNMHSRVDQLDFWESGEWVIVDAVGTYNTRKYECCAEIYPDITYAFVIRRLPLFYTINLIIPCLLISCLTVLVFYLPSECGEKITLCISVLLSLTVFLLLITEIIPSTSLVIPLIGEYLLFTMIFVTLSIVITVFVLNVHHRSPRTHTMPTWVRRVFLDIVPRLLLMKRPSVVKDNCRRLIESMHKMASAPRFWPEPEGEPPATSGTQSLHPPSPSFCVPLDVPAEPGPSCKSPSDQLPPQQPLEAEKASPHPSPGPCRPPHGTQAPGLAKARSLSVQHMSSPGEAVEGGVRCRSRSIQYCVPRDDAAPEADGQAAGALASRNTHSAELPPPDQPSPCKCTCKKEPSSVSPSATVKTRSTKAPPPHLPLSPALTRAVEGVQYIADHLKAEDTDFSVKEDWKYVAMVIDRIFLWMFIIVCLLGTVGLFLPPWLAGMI
# α4β2 neuronal nicotinic acetylcholine receptor subtype, sequence (P17787 26-502): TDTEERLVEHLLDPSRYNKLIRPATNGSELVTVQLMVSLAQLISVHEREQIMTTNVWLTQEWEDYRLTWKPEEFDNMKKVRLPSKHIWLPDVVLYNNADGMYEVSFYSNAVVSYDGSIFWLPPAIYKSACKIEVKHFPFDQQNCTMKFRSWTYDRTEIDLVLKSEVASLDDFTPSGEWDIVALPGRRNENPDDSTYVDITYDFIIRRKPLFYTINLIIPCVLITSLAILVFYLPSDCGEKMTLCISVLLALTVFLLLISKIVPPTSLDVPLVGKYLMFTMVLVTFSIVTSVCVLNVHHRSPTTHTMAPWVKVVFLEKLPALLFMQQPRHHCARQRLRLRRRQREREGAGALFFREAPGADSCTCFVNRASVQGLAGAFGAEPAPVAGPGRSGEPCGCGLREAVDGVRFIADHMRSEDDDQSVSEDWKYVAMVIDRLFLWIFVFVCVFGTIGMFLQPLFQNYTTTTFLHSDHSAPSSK
# [4] = oral; cited from earlier work
# [5] = Observational pharmacogenetic study: dose reduction due to adverse effects in smokers treated with varenicline; assay type: in vivo, human; conditions: for Linear OR, dose reduction due to adverse effects: linear model
# Procedure: as §1, §2, §3, §4, §5, §6, §7
compound,measurement,setting,value
"c1cnc2cc3c(cc2n1)C1CNCC3C1 [varenicline, 7,8,9,10-tetrahydro-6,10-methane-6H-pyrazino[2,3-h][3]benzazepine]","Linear OR, treatment suspension due to adverse effects","[1]; human, in vivo, 3 months",2.43
same,"OR (95% CI), alleles, treatment suspension due to adverse effects","[1]; human, in vivo, 3 months",2.41
same,"OR (95% CI), alleles, treatment suspension due to adverse effects","[1]; rs7146 (C19orf6) alleles C, T",1.83
same,"OR, treatment suspension due to adverse effects",[1]; rs7146 (C19orf6) genotype C/C (reference),1.00
same,"OR, treatment suspension due to adverse effects",[1]; rs7146 (C19orf6) genotype C/T,1.61
same,"OR, treatment suspension due to adverse effects",[1]; rs7146 (C19orf6) genotype T/T,4.05
same,"Linear OR, treatment suspension due to adverse effects","[1]; rs7146 (C19orf6) genotype, linear model",1.93
same,"OR (95% CI), alleles, treatment suspension due to adverse effects","[1]; rs477292 (OPRM1) alleles G, A",1.91
same,"OR, treatment suspension due to adverse effects",[1]; rs477292 (OPRM1) genotype A/A,3.54
same,"OR, treatment suspension due to adverse effects",[1]; rs477292 (OPRM1) genotype A/G,2.13
same,"OR, treatment suspension due to adverse effects",[1]; rs477292 (OPRM1) genotype G/G (reference),1.00
same,"Linear OR, treatment suspension due to adverse effects","[1]; rs477292 (OPRM1) genotype, linear model",1.99
same,"OR (95% CI), alleles, treatment suspension due to adverse effects","[1]; rs495491 (OPRM1) alleles T, C",2.08
same,"OR, treatment suspension due to adverse effects",[1]; rs495491 (OPRM1) genotype C/C,3.80
same,"OR, treatment suspension due to adverse effects",[1]; rs495491 (OPRM1) genotype C/T,2.77
same,"OR, treatment suspension due to adverse effects",[1]; rs495491 (OPRM1) genotype T/T (reference),1.00
same,"Linear OR, treatment suspension due to adverse effects","[1]; rs495491 (OPRM1) genotype, linear model",2.19
same,"OR (95% CI), alleles, treatment suspension due to adverse effects","[1]; rs3778151 (OPRM1) alleles T, C",2.40
same,"OR, treatment suspension due to adverse effects",[1]; rs3778151 (OPRM1) genotype C/C,8.48
same,"OR, treatment suspension due to adverse effects",[1]; rs3778151 (OPRM1) genotype C/T,2.26
same,"OR, treatment suspension due to adverse effects",[1]; rs3778151 (OPRM1) genotype T/T (reference),1.00
same,"Linear OR, treatment suspension due to adverse effects","[1]; rs3778151 (OPRM1) genotype, linear model",2.55
same,"OR (95% CI), alleles, treatment suspension due to adverse effects","[1]; rs7930792 (UBASH3B) alleles C, G",0.52
same,"OR, treatment suspension due to adverse effects",[1]; rs7930792 (UBASH3B) genotype C/C (reference),1.00
same,"OR, treatment suspension due to adverse effects",[1]; rs7930792 (UBASH3B) genotype C/G,0.58
same,"OR, treatment suspension due to adverse effects",[1]; rs7930792 (UBASH3B) genotype G/G,0.21
same,"Linear OR, treatment suspension due to adverse effects","[1]; rs7930792 (UBASH3B) genotype, linear model",0.52
same,"OR (95% CI), alleles, treatment suspension due to adverse effects","[1]; rs9479757 (OPRM1) alleles G, A",3.27
same,"OR, treatment suspension due to adverse effects",[1]; rs9479757 (OPRM1) genotype A/A,12.30
same,"OR, treatment suspension due to adverse effects",[1]; rs9479757 (OPRM1) genotype A/G,3.46
same,"OR, treatment suspension due to adverse effects",[1]; rs9479757 (OPRM1) genotype G/G (reference),1.00
same,"Linear OR, treatment suspension due to adverse effects","[1]; rs9479757 (OPRM1) genotype, linear model",3.47
same,"OR (95% CI), alleles, treatment suspension due to adverse effects","[1]; rs12423809 (C12orf36) alleles A, C",1.91
same,"OR, treatment suspension due to adverse effects",[1]; rs12423809 (C12orf36) genotype A/A (reference),1.00
same,"OR, treatment suspension due to adverse effects",[1]; rs12423809 (C12orf36) genotype A/C,1.59
same,"OR, treatment suspension due to adverse effects",[1]; rs12423809 (C12orf36) genotype C/C,3.53
same,"Linear OR, treatment suspension due to adverse effects","[1]; rs12423809 (C12orf36) genotype, linear model",1.87
same,treatment withdrawal rate due to adverse effects,[2],12%
same,withdrawal rate due to headache,[2],0.6%
same,withdrawal rate due to insomnia,[2],1.2%
same,withdrawal rate due to nausea,[2],3%
same,withdrawal rate due to sleep alterations,[2],0.3%
same,affinity,[3],high affinity
same,absorption,[4],complete
same,systemic availability,[4],high
same,time of maximum plasma concentrations after intake,[4],3 to 4 h
same,"OR (95% CI), alleles, dose reduction due to adverse effects","[5]; rs763132 (ARHGAP18) alleles T, G",0.43
same,"OR, dose reduction due to adverse effects",[5]; rs763132 (ARHGAP18) genotype G/G,0.13
same,"OR, dose reduction due to adverse effects",[5]; rs763132 (ARHGAP18) genotype G/T,0.49
same,"OR, dose reduction due to adverse effects",[5]; rs763132 (ARHGAP18) genotype T/T (reference),1.00
same,"Linear OR, dose reduction due to adverse effects",[5]; rs763132 (ARHGAP18) genotype,0.44
same,"OR (95% CI), alleles, dose reduction due to adverse effects","[5]; rs1183035 (MAOB) alleles T, C",0.28
same,"OR, dose reduction due to adverse effects",[5]; rs1183035 (MAOB) genotype C/C,0.00
same,"OR, dose reduction due to adverse effects",[5]; rs1183035 (MAOB) genotype C/T,0.83
same,"OR, dose reduction due to adverse effects",[5]; rs1183035 (MAOB) genotype T/T (reference),1.00
same,"Linear OR, dose reduction due to adverse effects",[5]; rs1183035 (MAOB) genotype,0.42
same,"OR (95% CI), alleles, dose reduction due to adverse effects","[5]; rs4474069 (RAPGEF1) alleles C, T",1.82
same,"OR, dose reduction due to adverse effects",[5]; rs4474069 (RAPGEF1) genotype C/C (reference),1.00
same,"OR, dose reduction due to adverse effects",[5]; rs4474069 (RAPGEF1) genotype C/T,2.68
same,"OR, dose reduction due to adverse effects",[5]; rs4474069 (RAPGEF1) genotype T/T,1.33
same,"Linear OR, dose reduction due to adverse effects",[5]; rs4474069 (RAPGEF1) genotype,1.87
